These results are taken from patent publication US8399676B2, “Piperidine derivatives” (Hoffman-La Roche Inc., priority 2009, dated 2013).

Where a name gives a salt, the structure may show the parent alone.

The term IC50 denotes the concentration needed to halve the response being measured.

The experiment concerns the target T1, human HSL (Homo sapiens, UniProt Q05469).
T1 construct: generate a full length human HSL ORF with a 3′-His6 tag; His6 (C); made in house; host or cells: High 5 insect cells (baculovirus, pFast-BAC)
T1 sequence (Q05469 1-1076): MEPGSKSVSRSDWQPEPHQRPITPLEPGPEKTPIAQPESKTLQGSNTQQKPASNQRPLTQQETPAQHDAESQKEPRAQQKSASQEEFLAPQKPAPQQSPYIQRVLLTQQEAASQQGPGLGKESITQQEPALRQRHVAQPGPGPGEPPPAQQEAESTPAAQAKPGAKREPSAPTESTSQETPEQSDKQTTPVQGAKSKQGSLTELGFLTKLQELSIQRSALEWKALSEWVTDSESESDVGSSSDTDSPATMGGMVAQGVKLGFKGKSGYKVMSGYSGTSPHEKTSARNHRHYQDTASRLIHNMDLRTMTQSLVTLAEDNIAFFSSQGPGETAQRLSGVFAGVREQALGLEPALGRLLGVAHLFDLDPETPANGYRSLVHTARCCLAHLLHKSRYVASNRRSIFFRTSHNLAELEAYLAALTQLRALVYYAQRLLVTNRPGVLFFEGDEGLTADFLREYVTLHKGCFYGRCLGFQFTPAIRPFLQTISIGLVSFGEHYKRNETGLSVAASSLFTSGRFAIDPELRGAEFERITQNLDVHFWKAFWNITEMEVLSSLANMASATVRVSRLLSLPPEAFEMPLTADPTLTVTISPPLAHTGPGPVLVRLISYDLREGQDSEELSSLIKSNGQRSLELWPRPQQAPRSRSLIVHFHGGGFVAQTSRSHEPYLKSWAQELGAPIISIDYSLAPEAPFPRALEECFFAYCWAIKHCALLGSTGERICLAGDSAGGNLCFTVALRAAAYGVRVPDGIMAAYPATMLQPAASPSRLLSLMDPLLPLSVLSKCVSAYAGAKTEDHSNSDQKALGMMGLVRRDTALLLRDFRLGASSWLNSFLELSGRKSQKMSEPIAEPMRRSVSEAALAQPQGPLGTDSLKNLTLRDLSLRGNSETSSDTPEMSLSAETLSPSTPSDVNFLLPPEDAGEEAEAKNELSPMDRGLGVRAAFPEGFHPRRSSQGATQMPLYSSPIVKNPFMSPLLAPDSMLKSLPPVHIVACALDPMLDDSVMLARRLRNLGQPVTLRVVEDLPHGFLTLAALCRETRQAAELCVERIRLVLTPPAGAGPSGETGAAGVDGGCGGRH
Description: Human Hormone-Sensitive Lipase (HSL) enzyme inhibition assay (colorimetric, DMPT substrate). The note with it: read-out: HSL hum IC50. In kind it is biochemical. The essentials:
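Full-length human HSL carrying a C-terminal His6 tag was expressed in High 5 insect cells via baculovirus and purified on Ni-NTA. Compounds from 3-fold DMSO series were mixed with 1.5 mM DMPT substrate suspension in 100 mM MOPS pH 7.2 with 0.2 mg/ml fatty acid-free BSA, then enzyme (15 ug/ml) was added for 20 minutes at 37 °C. Released thiol was detected with DTNB plus SDS/Triton X-100 (15 minutes, room temperature) at 405 nm.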
`Cc1ccc(S(=O)(=O)N2CCC(N)(C(=O)Nc3ccc(OC(C)C)cc3)CC2)cc1` [Example 79, 4-Amino-1-(toluene-4-sulfonyl)-piperidine-4-carboxylic acid (4-isopropoxy-phenyl)-amide; hydrochloride]: the IC50 came to 0.13 µM.
`Cc1ccc(S(=O)(=O)N2CCC(N)(C(=O)Nc3ccc(OC(F)(F)F)cc3)CC2)cc1` [Example 80, 4-Amino-1-(toluene-4-sulfonyl)-piperidine-4-carboxylic acid (4-trifluoromethoxy-phenyl)-amide; hydrochloride]: the IC50 came out at 0.05 µM.
The figure for `CCc1ccc(NC(=O)C2(N)CCN(S(=O)(=O)c3ccc(C)cc3)CC2)cc1` [Example 81, 4-Amino-1-(toluene-4-sulfonyl)-piperidine-4-carboxylic acid (4-ethyl-phenyl)-amide] is 0.12 µM; for `CC(C)c1ccc(NC(=O)C2(N)CCN(C(=O)OCc3ccccc3)CC2)cc1` [Example 82, 4-Amino-4-(4-isopropyl-phenylcarbamoyl)-piperidine-1-carboxylic acid benzyl ester; hydrochloride] it is 0.32 µM; for `CC(C)c1ccc(NC(=O)C2(N)CCN(S(=O)(=O)c3ccc(C(C)C)cc3)CC2)cc1` [Example 83, 4-Amino-1-(4-isopropyl-benzenesulfonyl)-piperidine-4-carboxylic acid (4-isopropyl-phenyl)-amide; hydrochloride] it is 0.23 µM.
The value for `Cc1ccc(NC(=O)C2(N)CCN(C(=O)Nc3ccc(OC(F)(F)F)cc3)CC2)cc1` [Example 84, 4-Amino-piperidine-1,4-dicarboxylic acid 4-p-tolylamide 1-[(4-trifluoromethoxy-phenyl)-amide]; hydrochloride] was 0.36 µM.
With `CC(C)c1ccc(NC(=O)C2(N)CCN(C(=O)Nc3ccc(OC(F)(F)F)cc3)CC2)cc1` [Example 85, 4-Amino-piperidine-1,4-dicarboxylic acid 4-[(4-isopropyl-phenyl)-amide]1-[(4-trifluoromethoxy-phenyl)-amide]; hydrochloride], the IC50 was 0.12 µM.
The figure for `CC(C)(C)c1ccc(NC(=O)C2(N)CCN(C(=O)Nc3ccc(OC(F)(F)F)cc3)CC2)cc1` [Example 86, 4-Amino-piperidine-1,4-dicarboxylic acid 4-[(4-tert-butyl-phenyl)-amide]1-[(4-trifluoromethoxy-phenyl)-amide]; hydrochloride] is 0.14 µM; for `CC(C)(C)c1ccc(NC(=O)N2CCC(N)(C(=O)Nc3ccc(F)cc3)CC2)cc1` [Example 87, 4-Amino-piperidine-1,4-dicarboxylic acid 1-[(4-tert-butyl-phenyl)-amide]-4-[(4-fluoro-phenyl)-amide]; hydrochloride] it is 0.78 µM; for `Cc1ccc(NC(=O)C2(N)CCN(C(=O)Nc3ccc(C(C)(C)C)cc3)CC2)cc1` [Example 88, 4-Amino-piperidine-1,4-dicarboxylic acid 1-[(4-tert-butyl-phenyl)-amide]-4-p-tolylamide; hydrochloride] it is 0.37 µM.
The value for `CC(C)c1ccc(NC(=O)C2(N)CCN(C(=O)Nc3ccc(C(C)(C)C)cc3)CC2)cc1` [Example 89, 4-Amino-piperidine-1,4-dicarboxylic acid 1-[(4-tert-butyl-phenyl)-amide]-4-[(4-isopropyl-phenyl)-amide]; hydrochloride] was 0.12 µM.
The figure for `CC(C)(C)c1ccc(NC(=O)N2CCC(N)(C(=O)Nc3ccc(C(C)(C)C)cc3)CC2)cc1` [Example 90, 4-Amino-piperidine-1,4-dicarboxylic acid bis-[(4-tert-butyl-phenyl)-amide]; hydrochloride] is 0.13 µM.
On to `NC1(C(=O)Nc2cccc(C(F)(F)F)c2)CCN(S(=O)(=O)c2ccccc2Cl)CC1` [Example 91, 4-Amino-1-(2-chloro-benzenesulfonyl)-piperidine-4-carboxylic acid (3-trifluoromethyl-phenyl)-amide], for which the IC50 stood at 0.71 µM.
For the molecule `CCc1cccc(NC(=O)C2(N)CCN(S(=O)(=O)c3ccccc3Cl)CC2)c1` [Example 92, 4-Amino-1-(2-chloro-benzenesulfonyl)-piperidine-4-carboxylic acid (3-ethyl-phenyl)-amide], the IC50 came out at 0.86 µM.
Consider `CCc1ccc(NC(=O)C2(N)CCN(S(=O)(=O)c3ccccc3Cl)CC2)cc1` [Example 93, 4-Amino-1-(2-chloro-benzenesulfonyl)-piperidine-4-carboxylic acid (4-ethyl-phenyl)-amide], for which the IC50 came out at 0.04 µM.
Take `NC1(C(=O)Nc2ccc(F)cc2)CCN(S(=O)(=O)c2ccccc2Cl)CC1` [Example 94, 4-Amino-1-(2-chloro-benzenesulfonyl)-piperidine-4-carboxylic acid (4-fluoro-phenyl)-amide]: the IC50 was found to be 0.78 µM.
`NC1(C(=O)Nc2ccc(Cl)cc2)CCN(S(=O)(=O)c2ccccc2Cl)CC1` [Example 95, 4-Amino-1-(2-chloro-benzenesulfonyl)-piperidine-4-carboxylic acid (4-chloro-phenyl)-amide]: the half-inhibitory concentration (IC50) was determined as 0.19 µM.
In the case of `CC(C)Oc1ccc(NC(=O)C2(N)CCN(S(=O)(=O)c3ccccc3Cl)CC2)cc1` [Example 96, 4-Amino-1-(2-chloro-benzenesulfonyl)-piperidine-4-carboxylic acid (4-isopropoxy-phenyl)-amide], the concentration for half-maximal inhibition (IC50) amounted to 0.05 µM.
In the case of `NC1(C(=O)Nc2ccc(OC(F)F)cc2)CCN(S(=O)(=O)c2ccccc2Cl)CC1` [Example 97, 4-Amino-1-(2-chloro-benzenesulfonyl)-piperidine-4-carboxylic acid (4-difluoromethoxy-phenyl)-amide], the IC50 was 0.09 µM.
The figure for `CCCc1ccc(NC(=O)C2(N)CCN(S(=O)(=O)c3ccccc3Cl)CC2)cc1` [Example 98, 4-Amino-1-(2-chloro-benzenesulfonyl)-piperidine-4-carboxylic acid (4-propyl-phenyl)-amide] is 0.07 µM.
The value for `NC1(C(=O)Nc2ccc3c(c2)CCC3)CCN(S(=O)(=O)c2ccccc2Cl)CC1` [Example 99, 4-Amino-1-(2-chloro-benzenesulfonyl)-piperidine-4-carboxylic acid indan-5-ylamide] was 0.06 µM; that for `C=Cc1ccc(NC(=O)C2(N)CCN(S(=O)(=O)c3ccccc3Cl)CC2)cc1` [Example 100, 4-Amino-1-(2-chloro-benzenesulfonyl)-piperidine-4-carboxylic acid (4-vinyl-phenyl)-amide] was 0.14 µM; that for `CC(C)c1ccc(NC(=O)C2(N)CCN(S(=O)(=O)c3ccccc3Cl)CC2)cn1` [Example 101, 4-Amino-1-(2-chloro-benzenesulfonyl)-piperidine-4-carboxylic acid (6-isopropyl-pyridin-3-yl)-amide] was 0.19 µM.
The value for `CC(C)(Oc1ccc(NC(=O)C2(N)CCN(S(=O)(=O)c3ccccc3Cl)CC2)cc1)C(F)(F)F` [Example 102, 4-Amino-1-(2-chloro-benzenesulfonyl)-piperidine-4-carboxylic acid [4-(2,2,2-trifluoro-1,1-dimethyl-ethoxy)-phenyl]-amide] was 0.18 µM; that for `NC1(C(=O)Nc2ccc(OC(F)(F)F)cc2)CCN(S(=O)(=O)c2ccccc2Cl)CC1` [Example 103, 4-Amino-1-(2-chloro-benzenesulfonyl)-piperidine-4-carboxylic acid (4-trifluoromethoxy-phenyl)-amide] was 0.03 µM.
